Experimental data from ChEMBL document CHEMBL1201862, “PubChem BioAssay data set” (2004).
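Dose response: 5 concentrations. Exposure: 48 h. Format: 96-well plates. Endpoint: linear interpolation; highest concentration if not reached. At the GI50, growth is halved.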 Activity calls are given as the source filed them. Rule as the data show it: active = GI50 up to about 1.1 µM and inactive = higher.

Experiments:
Assay in all cases: NCI-60 cell line screen, 48 h
HOP-62 = system: HOP-62
OVCAR-4 = system: OVCAR-4
NCI-H23 = system: NCI-H23
BT-549 = system: BT-549
COLO 205 = system: COLO 205
RPMI-8226 = system: RPMI-8226
UACC-257 = system: UACC-257
SNB-75 = system: SNB-75
LOX IMVI = system: LOX IMVI
OVCAR-8 = system: OVCAR-8
CAKI-1 = system: CAKI-1
M14 = system: M14
NCI-H522 = system: NCI-H522
MDA-MB-231 = system: MDA-MB-231
K562 = system: K562
SF-539 = system: SF-539
RXF 393 = system: RXF 393
NCI-H226 = system: NCI-H226
HL-60 = system: HL-60

Row | SMILES | GI50 (HOP-62) | GI50 (OVCAR-4) | GI50 (NCI-H23) | GI50 (BT-549) | GI50 (COLO 205) | GI50 (RPMI-8226) | GI50 (UACC-257) | GI50 (SNB-75) | GI50 (LOX IMVI) | GI50 (OVCAR-8) | GI50 (CAKI-1) | GI50 (M14) | GI50 (NCI-H522) | GI50 (MDA-MB-231) | GI50 (K562) | GI50 (SF-539) | GI50 (RXF 393) | GI50 (NCI-H226) | GI50 (HL-60)
1 | CC12CCCC(O)C1CCC1=CC3(CCC12)SCCS3 (configuration not stated) | > 10 µM (inactive) | > 10 µM (inactive) | > 10 µM (inactive) | > 10 µM (inactive) | > 10 µM (inactive) | > 10 µM (inactive) | > 10 µM (inactive) | > 10 µM (inactive) | > 10 µM (inactive) | > 10 µM (inactive) | > 10 µM (inactive) | > 10 µM (inactive) | > 10 µM (inactive) | > 10 µM (inactive) | > 10 µM (inactive) | – | – | – | –
2 | Nc1nc(N)c2ncn(-c3ccc(Cl)c(Cl)c3)c2n1 | 29.6 µM (inactive) | 33.3 µM (inactive) | 15.9 µM (inactive) | 21.9 µM (inactive) | 14.9 µM (inactive) | 22.4 µM (inactive) | 27.4 µM (inactive) | < 0.01 µM (active) | – | 24.5 µM (inactive) | 16.9 µM (inactive) | 42.7 µM (inactive) | 28.4 µM (inactive) | 23.1 µM (inactive) | – | 21 µM (inactive) | 12.7 µM (inactive) | 35.2 µM (inactive) | –
3 | C[Si](C)(C)c1ccc(-c2c3ccc(-c4cc(Br)cc(Br)c4)nc3nc3nc(-c4cc(Br)cc(Br)c4)ccc23)cc1 | > 100 µM (inactive) | > 100 µM (inactive) | > 100 µM (inactive) | > 100 µM (inactive) | > 100 µM (inactive) | > 100 µM (inactive) | > 100 µM (inactive) | > 100 µM (inactive) | – | – | > 100 µM (inactive) | > 100 µM (inactive) | > 100 µM (inactive) | > 100 µM (inactive) | – | – | – | > 100 µM (inactive) | –
4 | O=C(NC/C(Cl)=C/Cl)Nc1c2ccccc2nc2ccccc12 | > 100 µM (inactive) | 35.4 µM (inactive) | > 100 µM (inactive) | – | 29 µM (inactive) | 53.3 µM (inactive) | 78.9 µM (inactive) | > 100 µM (inactive) | 61.2 µM (inactive) | 56.4 µM (inactive) | > 100 µM (inactive) | 84.5 µM (inactive) | > 100 µM (inactive) | 22 µM (inactive) | – | 25.1 µM (inactive) | > 100 µM (inactive) | 31.8 µM (inactive) | –
5 | CCc1ccc2c(c1)/C(=C1/Nc3ccccc3C1=O)C(=O)N2 | 14.2 µM (inactive) | 7.82 µM (inactive) | 29.6 µM (inactive) | 25.1 µM (inactive) | 14.5 µM (inactive) | > 100 µM (inactive) | 30.5 µM (inactive) | 22.3 µM (inactive) | 50.7 µM (inactive) | 7.46 µM (inactive) | 17.2 µM (inactive) | 26.7 µM (inactive) | 19.5 µM (inactive) | 34 µM (inactive) | 22.3 µM (inactive) | – | 15.1 µM (inactive) | 18.7 µM (inactive) | –
6 | C#CCN(N=O)C(=O)NCCCCC(NC(=O)OCc1ccccc1)C(=O)OCc1ccccc1 (configuration not stated) | > 100 µM (inactive) | > 100 µM (inactive) | 34.6 µM (inactive) | – | – | 31.9 µM (inactive) | 37.2 µM (inactive) | 46.3 µM (inactive) | 14.5 µM (inactive) | 38.9 µM (inactive) | 24 µM (inactive) | 27 µM (inactive) | 15.3 µM (inactive) | – | 23.3 µM (inactive) | 16.3 µM (inactive) | 25.4 µM (inactive) | > 100 µM (inactive) | 29.9 µM (inactive)
7 | COC(=O)C(NC(=O)CSc1nnc(COc2ccc(Cl)cc2)n1-c1ccccc1)C(C)C (configuration not stated) | 18.6 µM (inactive) | 25.6 µM (inactive) | 25.4 µM (inactive) | – | 23.4 µM (inactive) | – | 17.7 µM (inactive) | 14.6 µM (inactive) | 26.2 µM (inactive) | 23.7 µM (inactive) | 10.3 µM (inactive) | 21.9 µM (inactive) | 10.6 µM (inactive) | 17.4 µM (inactive) | 53.8 µM (inactive) | 31.2 µM (inactive) | 24 µM (inactive) | 17 µM (inactive) | 16.7 µM (inactive)
8 | COC(=O)c1c(C)cccc1C1CN=NC12Cc1ccc(C)cc1C2=O (configuration not stated) | 52.7 µM (inactive) | 48.8 µM (inactive) | 39.2 µM (inactive) | – | – | 25.6 µM (inactive) | 49.1 µM (inactive) | 57.5 µM (inactive) | 28.6 µM (inactive) | 43.2 µM (inactive) | > 100 µM (inactive) | 38.8 µM (inactive) | 29.4 µM (inactive) | 47.1 µM (inactive) | 29.8 µM (inactive) | 47 µM (inactive) | 75.9 µM (inactive) | 44.4 µM (inactive) | 21.6 µM (inactive)
